From publication PMC9323911, “Comparative Metabolomics Study of the Impact of Articaine and Lidocaine on the Metabolism of SH-SY5Y Neuronal Cells” (Metabolites, 2022)
Entries after “also recorded” stand apart in the source; their conditions may differ. Counter-ions that a name gives are not always drawn.

Key:
SH-SY5Y cells [1] = conditions: cited from earlier work
[2] = design: method as in PMID 31172838; conditions: neutral species; cited from earlier work
[3] = design: method as in PMID 31172838; conditions: ATC vs LDC; cited from earlier work
[4] = cited from earlier work
SH-SY5Y cells [5] = assay: 1H NMR metabolic profiling of cell lipid extracts; type: cell-based, human; conditions: lipid extract, vs control
Method: After reaching semiconfluence, 10 mL of cells (1 × 10^6 cells/mL) were plated on 90 mm diameter culture dishes and incubated for 24 h. […] Afterward, the medium was collected and the dishes washed with cold PBS, immediately before the solvent extraction procedure described below. Unexposed cells were used as controls. Each assay comprised duplicates of each condition and three independent assays were performed, giving a total of 6 replicates per condition.
The culture medium was collected from each plate (including cell-free medium incubated under the same conditions) in conical tubes and centrifuged at 1000× g for 10 min. Furthermore, 300 µL of the supernatant were collected for protein precipitation, as described by Kostidis et al.. Briefly, 600 µL of 100% methanol (v/v) at −80 °C were added to the collected supernatant ([…]). The mixture was kept at −20 °C for 30 min and centrifuged at 13,000× g for 20 min. The supernatant was transferred to another tube and vacuum dried (SpeedVac, Eppendorf, Hamburg, Germany). For extracting cellular metabolites, a biphasic extraction protocol (methanol:chloroform:water; 1:1:0.7) was used as previously described. The resulting polar extracts were dried under vacuum in a Speedvac concentrator, and the lipophilic extracts were dried under a nitrogen flow. All extracts were stored at −80 °C prior to NMR analysis.
For NMR analysis, dried aqueous and lipid extracts were dissolved, respectively, in 600 μL of deuterated phosphate buffer (PBS 100 mM, pH 7.4) containing 0.1 mM 3-(trimethylsilyl) propionic acid (TSP-d4), and 600 μL of deuterated chloroform containing 0.03% tetramethylsilane (TMS). After transferring 550 μL of each sample to 5 mm NMR tubes, analysis was performed on a Bruker Avance III HD 500 NMR spectrometer (University of Aveiro, Portuguese NMR Network) operating at 500.13 MHz for ^1H observation, at 298 K. Standard 1D ^1H spectra (pulse programs ‘noesypr1d’ and ‘zg’ for aqueous and lipid samples, respectively) were recorded with 32 k points, 7002.80 Hz spectral width, a 2 s relaxation delay and 512 scans. […]. Two-dimensional NMR spectra, namely, ^1H-^1H TOCSY, J-resolved and ^1H-^13C HSQC spectra, were also recorded for selected samples to aid metabolite identification. Signal assignment was based on matching 1D and 2D spectral information to reference spectra available in Chenomx 9.0 (Edmonton, AB, Canada), BBIOREFCODE-2–0–0 (Bruker Biospin, Rheinstetten, Germany) and HMDB.
To provide a quantitative measurement of metabolic variations, spectral integration and total area normalization of selected signals (vide Supplementary Table S1) were carried out in Amix-Viewer 3.9.15 (Bruker Biospin, Rheinstetten, Germany). For each metabolite, the percentage of variation (or fold change) in exposed samples was calculated relative to respective controls, along with the effect size (ES) and statistical significance (p-value). The variations with larger magnitude (|ES| > 0.8) were expressed in a heatmap. Loadings profiles and heatmap figures were generated using the R software version 4.1.3 (R Core Team (2020). R: A language and environment for statistical computing. R Foundation for Statistical Computing, Vienna, Austria. URL http://www.R-project.org/ accessed 23 May 2022).

[6] = system: neuronal cells of a different lineage (SHEP); conditions: 24 h; cited from earlier work

Row | Structure (SMILES) | effect on cells at very short exposure (SH-SY5Y cells [1]; 5 min exposure) | LD50 (SH-SY5Y cells [1]; 20 min incubation of SH-SY5Y cells) | Aqueous solubility [2] | fold lower egg phosphatidylcholine/aqueous buffer partition coefficient (P) than LDC [3] | Plasma half-life [4] | cholesterol level (SH-SY5Y cells [5]; IC50, 24 h) | cholesteryl esters level (SH-SY5Y cells [5]; IC50, 24 h) | phospholipids level (SH-SY5Y cells [5]; IC50, 24 h) | triglycerides level (SH-SY5Y cells [5]; IC50, 24 h) | LD50 [6] | phosphatidylcholine (PtC) level (SH-SY5Y cells [5]; 24 h)
1 | CCCNC(C)C(=O)Nc1c(C)csc1C(=O)OC (stereo not drawn) [ATC, Articaine hydrochloride] | no effect | 9.0 mM | 62.1 mM | 10 × | 20 min | significant decrease | prominent increase; also recorded: increased | decreases | decreases | 13.4 mM | 
2 | CCN(CC)CC(=O)Nc1c(C)cccc1C [LDC, lidocaine hydrochloride] |  |  |  |  |  |  |  |  | accumulated; also recorded: increased |  | decrease
